For orientation: mortality means the percentage killed.

What all share (format): in vivo
For assay [1], the system named is Mythimna separata. The experiment in a line: Indoor bioactivity test against Mythimna separata (leaf dip). Particulars: foliar, 3rd day after treatment. An excerpt:
The leaf dip method was used to assay the insecticidal activity of compounds to strains of Mythimna sepatata. Cut above ground part of fresh maize seedlings, about 10 cm. Dip the maize seedlings into the solution prepared with compound of this invention for 10 seconds and dry them in a cool environment. Then cut the dry maize seedlings into 3˜5 cm leaf sections and put 3 leaf sections into each petri dish. Put ten of 4th-instar larvae of Mythimna separatas into each dish, which was repeated by 3 times. Then the dishes were placed in an illumination incubator and incubated at 25° C. in the dark. Symptoms were investigated on the 1st, 2nd and 3rd day after treatment, and the mortality was calculated.

Assay [2] concerns Spodoptera exigua Hiibner. Put plainly: Indoor bioactivity test against Spodoptera exigua Hiibner (leaf dip). As to conditions: foliar, 3rd day after treatment. The procedure: (§1) The leaf dip method was used to assay the insecticidal activity of compounds to strains of Spodoptera exigua Hiibner. Dip the leaf disc into the solution prepared with compound of this invention for 10 seconds, and dry them in a cool environment. Then place them in Petri dish with 4 discs per dish. Put the filter paper into the Petri dish to moisturize it. Put 10 of Spodoptera exigua Hiibners into each dish, which was repeated by 3 times. The dishes were placed in an illumination incubator and incubated at 25° C. with 14 hL: 10 hD illumination. The number of Spodoptera exigua Hiibner death was investigated on the 1st, 2nd and 3rd day after treatment, and the mortality was calculated.

Assay [3] deals with Plutella xylostella. The experiment in a line: Indoor bioactivity test against Plutella xylostella (leaf dip). Particulars: foliar; for mortality at 0.4 ppm / mortality at 1 ppm: 3rd day after treatment. Here is the method: as §1, with “Plutella xylostella.” for “Spodoptera exigua Hiibner.”, “Plutella xylostella” for “Spodoptera exigua Hiibners”, “Plutella xylostella” for “Spodoptera exigua Hiibner”
According to the above method, compound 4 and KC1 were selected and parallelly tested against Plutella xylostella to compare their insecticidal activity.

Assay [4] concerns Spodoptera litura. Put plainly: Indoor bioactivity test against Spodoptera litura (leaf dip). As to conditions: foliar. The procedure: as §1, with “litura.” for “exigua Hiibner.”, “litura” for “exigua Hiibners”, “litura” for “exigua Hiibner”
According to the above method, compound 4, 23 and KC1 were selected and parallelly tested against Spodoptera litura to compare the insecticidal activity.

Assay [5] deals with Chilo suppressalis. Put plainly: Indoor bioactivity test against Chilo suppressalis (rice stem dip). The procedure:
The leaf dip method was used to assay the insecticidal activity of compounds to strains of Chilo suppressalis. The rice was cultivated in a plastic pot with a diameter of 9 cm and a height of 10 cm. When the rice grew about 25 cm, the aerial part of robust and consistent rice seedlings were selectively cut. Their leaves were removed and their stems of about 8 cm were kept for use. Pour the solution prepared with compound of this invention into the Petri dish (about 40 mL) and immerse the rice stems into the solution for 10 seconds. Take rice stems out and dry them in a cool environment. Put a wet cotton ball at the bottom of finger-like glass tube and 5 rice stems in each tube. Put 10 of 3rd-instar larvae of Chilo suppressa into each tube, which was repeated by 3 times. Seal the tubes with black cotton cloth and tighten them with rubber band. The tubes were placed in a illumination incubator at 28° C. and incubated in the dark. The number of alive Chilo suppressalis and the total number were investigated 3 days after treatment. The mortality was calculated.
According to the above method, Compound 23 and KC2 were selected and parallelly tested against Chilo suppressalis.

Assay [6] concerns soybean thrips. Put plainly: Biological activity on soybean thrips in greenhouse (foliar spray). Particulars: for mortality at 10 ppm / mortality at 50 ppm: Thrips, foliar; for No. of thrips 1 d / No. of thrips 6 d: foliar spray, 5% SL. Here is the method:
Test system: naturally occurring thrips population on soybeans planted in greenhouse. The basic number of active thripses were more than 100 thripses per trifoliate leaf. Under the same conditions, the sensitivity of the thrips population to Spinetoram (dose: 50 mg/L) is 96.55% mortality on the 6th day after treatment.
The size of the plot: 10 m^2, no repetition.
Test formulation: each compound was made into 5% SL (compound 5%+emulsifier 5%+solvent to make up 100%).
(1) Spraying time: both adult and larva thripses were in the active period. The number of spray: 1 time.
(2) Standard for water usage: when dose was in mg/kg, the upper leaves were wet and water began to drop therefrom.
(3) Survey standard: count three single leaves as one leaf. Three leaves were randomly selected and investigated for the number of adult and larva thripses on them.
[…] 2 surveys were conducted.

[7] abbreviates: 24 h, 1 d, read-out: Mortality (%) 1 d.
Where [8] appears, read: 48 h, 2 d, read-out: Mortality (%) 2 d.
Where [9] appears, read: 72 h, 3 d, read-out: Mortality (%) 3 d.
[10] abbreviates: 3rd day after treatment, read-out: mortality of Chilo suppressalis.
Where [11] appears, read: 24 h, read-out: Mortality % 1 d.
[12] abbreviates: 144 h, read-out: Mortality % 6 d.
The mark [13] stands for this setting: 3rd day after treatment, read-out: mortality of Spodoptera litura.

Where two headings read alike, the source gives them in different places. Where only a bound is given, the exact number is not on record here.

In the case of `O=C(Nc1c(Br)cc(C(F)(C(F)(F)F)C(F)(F)F)cc1C(F)(F)F)c1cccc(N(CC2CC2)C(=O)c2ccccc2)c1F` [Compound 4, N-(2-bromo-4-(perfluoropropan-2-yl)-6-(trifluoromethyl)phenyl)-3-(N-(cyclopropylmethyl)benzamido)-2-fluorobenzamide], the mortality at 1 ppm in assay [1] is at least 90%; in assay [2], 90%; in assay [4] (setting [7]), 73.3%; in assay [4] (setting [8]) it was 73.3%; in assay [4] (setting [9]), 73.3%. The mortality at 0.4 ppm is at least 90% in assay [3], 20% in assay [4] (setting [7]), 26.7% in assay [4] (setting [8]) and 26.7% in assay [4] (setting [9]). The mortality at 0.04 ppm was determined as 30% in assay [3] (setting [7]), 80% in assay [3] (setting [8]) and 100% in assay [3] (setting [9]). Also, the values for the mortality at 10 ppm in assay [4] (3rd day after treatment), in assay [6] (setting [11]) and in assay [6] (setting [12]) were at least 90%, 92.4% and 98.3%, respectively. Besides, the mortality at 5 ppm in assay [5] (setting [10]) was at least 90%. The figures for the mortality at 50 ppm in assay [6] (setting [11]) and in assay [6] (setting [12]) were 97.7% and 94.8%, respectively. For the same compound, the entries for the “No. of thrips 1 d” value in assay [6] (dose 10 ppm) and in assay [6] (dose 50 ppm) were 20 and 6, respectively. For the same compound, the “No. of thrips 6 d” value is given as 2 in assay [6] (dose 10 ppm) and 6 in assay [6] (dose 50 ppm).

On to `N#Cc1ccc(C(=O)N(CC2CC2)c2cccc(C(=O)Nc3c(Br)cc(C(F)(C(F)(F)F)C(F)(F)F)cc3C(F)(F)F)c2F)cc1` [Compound 23, N-(2-bromo-4-(perfluoropropan-2-yl)-6-(trifluoromethyl)phenyl)-3-(4-cyano-N-(cyclopropylmethyl)benzamido)-2-fluorobenzamide], for which the mortality at 1 ppm is at least 90% in assay [1]; 90% in assay [2]; 93.3% in assay [4] (setting [7]); 100% in assay [4] (setting [8]); 100% in assay [4] (setting [9]); 93.3% in assay [5] (72 h, 1 ppm, 3d). For the same compound, the mortality at 0.4 ppm in assay [3] is at least 90%; in assay [4] (setting [13]), at least 90%; in assay [4] (setting [7]), 40%; in assay [4] (setting [8]), 46.7%; in assay [4] (setting [9]), 60%; in assay [5] (72 h, 0.4 ppm, 3d) it was 53.3%. Besides, the mortality at 5 ppm in assay [5] (setting [10]) was at least 90%; in assay [5] (72 h, 3d, read-out: Mortality (%, 3d) 5 ppm), 100%. In assay [5] (72 h, 2 ppm, 3d), this compound had a mortality at 2 ppm of 100%.

Take `O=C(Nc1c(Br)cc(C(F)(C(F)(F)F)C(F)(F)F)cc1C(F)(F)F)c1cccc(N(CC2CC2)C(=O)c2ccc(C(F)(F)F)cc2)c1F` [Compound 37, N-(2-bromo-4-(perfluoropropan-2-yl)-6-(trifluoromethyl)phenyl)-3-(N-(cyclopropylmethyl)-4-(trifluoromethyl)benzamido)-2-fluorobenzamide]: the mortality at 1 ppm in assay [1] is at least 90%; in assay [2], 90%; in assay [3] it was at least 90%. In assay [4] (setting [13]), the mortality at 0.4 ppm is at least 90%. Moreover, in assay [5] (setting [10]), the mortality at 5 ppm was at least 90%.

As to `O=C(Nc1c(Br)cc(C(F)(C(F)(F)F)C(F)(F)F)cc1C(F)(F)F)c1cccc(N(CC2CC2)C(=O)c2ccc(Cl)cc2)c1F` [Compound 41, N-(2-bromo-4-(perfluoropropan-2-yl)-6-(trifluoromethyl)phenyl)-3-(4-chloro-N-(cyclopropylmethyl)benzamido)-2-fluorobenzamide], the mortality at 1 ppm in assay [1] was at least 90%; in assay [2] it was 90%. Further, the mortality at 0.4 ppm in assay [3] and in assay [4] (setting [13]) was at least 90% throughout. Also, in assay [5] (setting [10]), the mortality at 5 ppm was at least 90%.

As to `CS(=O)(=O)c1ccc(C(=O)N(CC2CC2)c2cccc(C(=O)Nc3c(Br)cc(C(F)(C(F)(F)F)C(F)(F)F)cc3C(F)(F)F)c2F)cc1` [Compound 57, N-(2-bromo-4-(perfluoropropan-2-yl)-6-(trifluoromethyl)phenyl)-3-(N-(cyclopropylmethyl)-4-(methylsulfonyl)benzamido)-2-fluorobenzamide], the figures for the mortality at 1 ppm in assay [1], in assay [2] and in assay [3] were at least 90%, 90% and at least 90%, respectively. In assay [4] (3rd day after treatment), this compound showed a mortality at 10 ppm of at least 90%.

As to `O=C(Nc1c(Br)cc(C(F)(C(F)(F)F)C(F)(F)F)cc1C(F)(F)F)c1cccc(N(CC2CC2)C(=O)c2ccc(OC(F)(F)F)cc2)c1F` [Compound 60, N-(2-bromo-4-(perfluoropropan-2-yl)-6-(trifluoromethyl)phenyl)-3-(N-(cyclopropylmethyl)-4-(trifluoromethoxy)benzamido)-2-fluorobenzamide], the mortality at 1 ppm in assay [1] and in assay [3] was at least 90% throughout. The same compound came in with a mortality at 10 ppm in assay [2] of at least 90%. The mortality at 0.4 ppm in assay [4] (setting [13]) was at least 90%.

Take `O=C(Nc1c(Br)cc(C(F)(C(F)(F)F)C(F)(F)F)cc1C(F)(F)F)c1cccc(N(CC2CC2)C(=O)c2ccc(F)cc2)c1F` [Compound 62, N-(2-bromo-4-(perfluoropropan-2-yl)-6-(trifluoromethyl)phenyl)-3-(N-(cyclopropylmethyl)-4-fluorobenzamido)-2-fluorobenzamide]: the mortality at 1 ppm in assay [1] is at least 90%; in assay [2], 90%. The mortality at 0.4 ppm in assay [3] and in assay [4] (setting [13]) was at least 90% throughout. In assay [5] (setting [10]), the mortality at 5 ppm was at least 90%.

As for `CC(N(C(=O)c1ccc(C#N)cc1)c1cccc(C(=O)Nc2c(Br)cc(C(F)(C(F)(F)F)C(F)(F)F)cc2C(F)(F)F)c1F)C1(Cl)CC1` (stereo not shown) [Compound 75, N-(2-bromo-4-(perfluoropropan-2-yl)-6-(trifluoromethyl)phenyl)-3-(N-(1-(1-chlorocyclopropyl)ethyl)-4-cyanobenzamido)-2-fluorobenzamide], the mortality at 1 ppm in assay [1] and in assay [3] was at least 90% each time. Moreover, the mortality at 10 ppm in assay [2] and in assay [4] (3rd day after treatment) was at least 90% each time.

The values above are taken from patent US11540516B2, “M-diamide compound and preparation method therefor and use thereof” (priority 2018, dated 2023).
